Experimental data: patent US5679640A, “Immunosuppressant peptides” (priority 1995, dated 1997)
Non-standard residues stand in square brackets, D forms with d. Residues, ends and D or L forms follow the SMILES beside them. Hyp = O=C(O)[C@@H]1C[C@@H](O)CN1; Cha = N[C@@H](CC1CCCCC1)C(=O)O

Experiments:
HLA-DR1 = biological target: T1, HLA-DR1 (Homo sapiens, UniProt P01903+P01911, A100R/D57E/F55L/F60I/F76Y/I96L/L162R/M171V/P40L/Q125E/R42F/V115G/Y59C); test: DR-peptide binding assay, DR1; conditions: Table 3, binding affinity relative to HA 307-319 = 1
T1 construct: EBV-transformed homozygous cell lines were used as a source of DR molecules; endogenous in cells; host or cells: LG-2 (EBV-transformed human B cell line, DR1 homozygous); lysate purified on a monoclonal antibody LB3.1 column

DR4w4 = biological target: T2, DR4w4 (Homo sapiens, UniProt P01903+P01911, A100K/A169T/F76Y/I96L/K127E/L162R/M171V/N62H/P40V/Q125Y/R42H/S133A/S149N/S66Y/V115G/V209L/W38E); test: DR-peptide binding assay, DR4w4; conditions: Table 3, binding affinity relative to HA 307-319 = 1
T2 construct: EBV-transformed homozygous cell lines were used as a source of DR molecules; endogenous in cells; host or cells: Preiss or Beh (EBV-transformed human B cell lines, DR4 Dw4 homozygous); lysate purified on a monoclonal antibody LB3.1 column

DR4w14 = test: DR-peptide binding assay, DR4w14; design: species or system human; conditions: Table 3, […]

SMILES	MHC Binding Assay DR1 (HLA-DR1)	MHC Binding Assay DR4w4 (DR4w4)	MHC Binding Assay DR4w14 (DR4w14)
CC(=O)N[C@H](C)C(=O)N[C@@H](C)C(=O)N[C@@H](Cc1ccccc1)C(=O)N[C@@H](C)C(=O)N[C@@H](C)C(=O)N[C@@H](C)C(=O)N[C@@H](CCCCN)C(=O)N[C@H](C(=O)N[C@@H](C)C(=O)N[C@@H](C)C(=O)N[C@@H](C)C(=O)N[C@@H](Cc1ccccc1)C(=O)N[C@H](C)C(N)=O)[C@@H](C)O (Ac-[dA]AFAAAKTAAAF[dA]-NH2)	++ (affinity greater than 1.0)	++ (affinity greater than 1.0)	++ (affinity greater than 1.0)
CC(=O)N[C@H](Cc1ccc(O)cc1)C(=O)N[C@@H](C)C(=O)N[C@@H](C)C(=O)N[C@@H](Cc1ccccc1)C(=O)N[C@@H](C)C(=O)N[C@@H](C)C(=O)N[C@@H](C)C(=O)N[C@@H](CCCCN)C(=O)N[C@H](C(=O)N[C@@H](CC(C)C)C(=O)N[C@@H](C)C(=O)N[C@@H](C)C(=O)N[C@@H](C)C(=O)N[C@H](C)C(N)=O)[C@@H](C)O (Ac-[dY]AAFAAAKTLAAA[dA]-NH2)	+ (0.51 to 1.0)	++ (affinity greater than 1.0)	++ (affinity greater than 1.0)
C[C@H](NC(=O)[C@H](N)Cc1ccc(O)cc1)C(=O)N[C@@H](C)C(=O)N[C@@H](CC1CCCCC1)C(=O)N[C@@H](C)C(=O)N[C@@H](C)C(=O)N[C@@H](C)C(=O)N[C@@H](C)C(=O)N1C[C@H](O)C[C@H]1C(=O)N[C@@H](CCCCN)C(=O)N[C@@H](C)C(=O)N[C@@H](C)C(=O)N[C@@H](C)C(=O)N[C@H](C)C(N)=O [yAAXAAAABKAAAa-NH2] (H-[dY]AA[Cha]AAAA[Hyp]KAAA[dA]-NH2)	++ (affinity greater than 1.0)	++ (affinity greater than 1.0)	++ (affinity greater than 1.0)
CC(C)C[C@H](NC(=O)[C@@H](NC(=O)[C@H](CCCCN)NC(=O)[C@H](C)NC(=O)[C@H](C)NC(=O)[C@H](C)NC(=O)[C@H](Cc1ccccc1)NC(=O)[C@H](C)NC(=O)[C@@H](C)N)[C@@H](C)O)C(=O)N[C@@H](C)C(=O)N[C@@H](C)C(=O)N[C@@H](C)C(=O)N[C@H](C)C(N)=O (H-[dA]AFAAAKTLAAA[dA]-NH2)	++ (affinity greater than 1.0)	++ (affinity greater than 1.0)	++ (affinity greater than 1.0)
C[C@H](NC(=O)[C@H](C)NC(=O)[C@H](CCCCN)NC(=O)[C@H](C)NC(=O)[C@H](Cc1ccccc1)NC(=O)[C@H](C)NC(=O)[C@@H](C)N)C(=O)N[C@H](C(=O)N[C@@H](C)C(=O)N[C@@H](CCCCN)C(=O)N[C@@H](C)C(=O)N[C@@H](C)C(=O)N[C@H](C)C(N)=O)[C@@H](C)O (H-[dA]AFAKAATAKAA[dA]-NH2)	++ (affinity greater than 1.0)	++ (affinity greater than 1.0)	++ (affinity greater than 1.0)
CC(=O)N[C@H](Cc1ccc(O)cc1)C(=O)N[C@@H](C)C(=O)N[C@@H](C)C(=O)N[C@@H](Cc1ccccc1)C(=O)N[C@@H](C)C(=O)N[C@@H](C)C(=O)N[C@@H](C)C(=O)N[C@@H](C)C(=O)N[C@H](C(=O)N[C@@H](C)C(=O)N[C@@H](CCCCN)C(=O)N[C@@H](C)C(=O)N[C@@H](C)C(=O)N[C@H](C)C(N)=O)[C@@H](C)O (Ac-[dY]AAFAAAATAKAA[dA]-NH2)	± (0.1 to 0.50)	++ (affinity greater than 1.0)	± (0.1 to 0.50)
C[C@H](NC(=O)[C@H](C)NC(=O)[C@H](C)NC(=O)[C@H](Cc1ccccc1)NC(=O)[C@H](C)NC(=O)[C@@H](C)N)C(=O)N[C@@H](C)C(=O)N[C@H](C(=O)N[C@@H](C)C(=O)N[C@@H](CCCCN)C(=O)N[C@@H](C)C(=O)N[C@@H](C)C(=O)N[C@H](C)C(=O)O)[C@@H](C)O (H-[dA]AFAAAATAKAA[dA]-OH)	++ (affinity greater than 1.0)	++ (affinity greater than 1.0)	++ (affinity greater than 1.0)
CC(C)C[C@H](NC(=O)[C@@H](NC(=O)[C@H](C)NC(=O)[C@H](C)NC(=O)[C@H](C)NC(=O)[C@H](C)NC(=O)[C@H](CC1CCCCC1)NC(=O)[C@H](C)NC(=O)[C@H](C)NC(=O)[C@H](N)Cc1ccc(O)cc1)[C@@H](C)O)C(=O)N[C@@H](CCCCN)C(=O)N[C@@H](C)C(=O)N[C@@H](C)C(=O)N[C@H](C)C(N)=O [yAAXAAAATLKAAa-NH2]	++ (affinity greater than 1.0)	++ (affinity greater than 1.0)	++ (affinity greater than 1.0)
CC(=O)N[C@H](C)C(=O)N[C@@H](C)C(=O)N[C@@H](CC1CCCCC1)C(=O)N[C@@H](C)C(=O)N[C@@H](C)C(=O)N[C@@H](C)C(=O)N[C@@H](C)C(=O)N[C@H](C(=O)N[C@@H](CC(C)C)C(=O)N[C@@H](CCCCN)C(=O)N[C@@H](C)C(=O)N[C@@H](C)C(=O)N[C@H](C)C(N)=O)[C@@H](C)O [Ac-aAXAAAATLKAAa-NH2]	++ (affinity greater than 1.0)	++ (affinity greater than 1.0)	++ (affinity greater than 1.0)
C[C@H](NC(=O)[C@H](C)NC(=O)[C@H](C)NC(=O)[C@H](Cc1ccccc1)NC(=O)[C@H](C)NC(=O)[C@@H](C)N)C(=O)N[C@@H](C)C(=O)N[C@H](C(=O)N[C@@H](C)C(=O)N[C@@H](CCCCN)C(=O)N[C@@H](C)C(=O)N[C@@H](C)C(=O)N[C@H](C)C(N)=O)[C@@H](C)O (H-[dA]AFAAAATAKAA[dA]-NH2)	++ (affinity greater than 1.0)	++ (affinity greater than 1.0)	++ (affinity greater than 1.0)

The next lines start with the values.

MHC Binding Assay DR1 (HLA-DR1)	MHC Binding Assay DR4w4 (DR4w4)	MHC Binding Assay DR4w14 (DR4w14)	SMILES
++ (affinity greater than 1.0)	++ (affinity greater than 1.0)	++ (affinity greater than 1.0)	C[C@H](NC(=O)[C@H](C)NC(=O)[C@H](C)NC(=O)[C@@H](NC(=O)[C@H](CCCCN)NC(=O)[C@H](C)NC(=O)[C@H](C)NC(=O)[C@H](C)NC(=O)[C@H](CC1CCCCC1)NC(=O)[C@@H](C)N)[C@@H](C)O)C(=O)N[C@@H](C)C(=O)N[C@H](C)C(N)=O [aXAAAKTAAAAa-NH2] (H-[dA][Cha]AAAKTAAAA[dA]-NH2)
+ (0.51 to 1.0)	++ (affinity greater than 1.0)	++ (affinity greater than 1.0)	CC(=O)N[C@H](C)C(=O)N[C@@H](C)C(=O)N[C@@H](CC1CCCCC1)C(=O)N[C@@H](C)C(=O)N[C@@H](C)C(=O)N[C@@H](C)C(=O)N[C@@H](CCCCN)C(=O)N[C@H](C(=O)N[C@@H](C)C(=O)N[C@@H](C)C(=O)N[C@@H](C)C(=O)N[C@@H](C)C(=O)N[C@H](C)C(N)=O)[C@@H](C)O [Ac-aAXAAAKTAAAAa-NH2]
++ (affinity greater than 1.0)	++ (affinity greater than 1.0)	++ (affinity greater than 1.0)	C[C@H](NC(=O)[C@H](N)Cc1ccc(O)cc1)C(=O)N[C@@H](C)C(=O)N[C@@H](CC1CCCCC1)C(=O)N[C@@H](C)C(=O)N[C@@H](C)C(=O)N[C@@H](C)C(=O)N[C@@H](CCCCN)C(=O)N[C@H](C(=O)N[C@@H](C)C(=O)N[C@@H](C)C(=O)N[C@@H](C)C(=O)N[C@@H](C)C(=O)N[C@H](C)C(N)=O)[C@@H](C)O [yAAXAAAKTAAAAa-NH2]
++ (affinity greater than 1.0)	++ (affinity greater than 1.0)	++ (affinity greater than 1.0)	C[C@H](NC(=O)[C@H](N)Cc1ccc(O)cc1)C(=O)N[C@@H](C)C(=O)N[C@@H](CC1CCCCC1)C(=O)N[C@@H](C)C(=O)N[C@@H](C)C(=O)N[C@@H](C)C(=O)N[C@@H](C)C(=O)N[C@H](C(=O)N[C@@H](CCCCN)C(=O)N[C@@H](C)C(=O)N[C@@H](C)C(=O)N[C@@H](C)C(=O)N[C@H](C)C(N)=O)[C@@H](C)O [yAAXAAAATKAAAa-NH2] (H-[dY]AA[Cha]AAAATKAAA[dA]-NH2)
++ (affinity greater than 1.0)	++ (affinity greater than 1.0)	++ (affinity greater than 1.0)	CC(C)C[C@H](NC(=O)[C@@H](NC(=O)[C@H](C)NC(=O)[C@H](C)NC(=O)[C@H](C)NC(=O)[C@H](C)NC(=O)[C@H](Cc1ccccc1)NC(=O)[C@H](C)NC(=O)[C@H](C)NC(=O)[C@H](N)Cc1ccc(O)cc1)[C@@H](C)O)C(=O)N[C@@H](CCCCN)C(=O)N[C@@H](C)C(=O)N[C@@H](C)C(=O)N[C@H](C)C(N)=O (H-[dY]AAFAAAATLKAA[dA]-NH2)
++ (affinity greater than 1.0)	++ (affinity greater than 1.0)	++ (affinity greater than 1.0)	CC(C)C[C@H](NC(=O)[C@@H](NC(=O)[C@H](CCCCN)NC(=O)[C@H](C)NC(=O)[C@H](C)NC(=O)[C@H](C)NC(=O)[C@H](Cc1ccccc1)NC(=O)[C@H](C)NC(=O)[C@H](C)NC(=O)[C@H](N)Cc1ccc(O)cc1)[C@@H](C)O)C(=O)N[C@@H](C)C(=O)N[C@@H](C)C(=O)N[C@@H](C)C(=O)N[C@H](C)C(N)=O (H-[dY]AAFAAAKTLAAA[dA]-NH2)
